# Columns and labels:
# [1] = tested on: Mycobacterium tuberculosis; experiment: Antitubercular activity against Mycobacterium tuberculosis H37Rv assessed as inhibition of bacterial growth incubated for 6 days by Alamar Blue based assay; assay type: functional; settings: 144 h, time 6 day
# [2] = Metabolic stability in human plasma at 50 uM measured after 60 mins by LC-MS/MS analysis; assay type: ADME, cell-free; settings: read-out: Stability
# [3] = Protein binding in human plasma at 150 uM by equilibrium dialysis method; assay type: ADME, cell-free; settings: read-out: PPB (converted)
# [4] = Cytotoxicity against mouse primary astrocytes assessed as reduction in cell viability measured after 24 hrs by MTT assay; assay type: toxicity, cell-based, Astrocyte
# [5] = Solubility of the compound at 5 mM at pH 7.4 by HPLC analysis; assay type: physicochemical; settings: buffer
# [6] = tested on: HEK293; experiment: Cytotoxicity against HEK293 cells assessed as reduction in cell viability at >45 uM measured after 24 hrs by MTT assay; assay type: toxicity, cell-based; settings: human, hek293, 24 h
# [7] = Solubility of the compound at 5 mM at pH 1.2 by HPLC analysis; assay type: physicochemical; settings: buffer
# [8] = Metabolic stability in human liver microsomes at 50 uM measured after 30 mins by LC-MS/MS analysis; assay type: ADME, Microsome; settings: read-out: Stability
# [9] = Solubility of the compound at 5 mM at pH 2.2 by HPLC analysis; assay type: physicochemical; settings: buffer
# [10] = Selectivity index, ratio of IC50 for cytotoxicity against mouse primary astrocytes cells to MIC for antitubercular activity against Mycobacterium tuberculosis H37Rv; assay type: toxicity, cell-based; settings: read-out: Ratio IC50
# [11] = Selectivity index, ratio of IC50 for cytotoxicity against HEK293 cells to MIC for antitubercular activity against Mycobacterium tuberculosis H37Rv; assay type: toxicity, cell-based; settings: human, read-out: Ratio IC50
# [12] = Metabolic stability in mouse liver microsomes at 50 uM measured after 30 mins by LC-MS/MS analysis; assay type: ADME, Microsome; settings: read-out: Stability
# [13] = Solubility of the compound at 5 mM at pH 4.5 by HPLC analysis; assay type: physicochemical; settings: buffer
# [14] = Solubility of the compound at 5 mM at pH 10.2 by HPLC analysis; assay type: physicochemical; settings: buffer
# [15] = tested on: Mycobacterium tuberculosis; experiment: Antitubercular activity against Mycobacterium tuberculosis H37Rv; assay type: functional
structure (smiles),measurement,setting,value
Cc1c(CN2CC[Si](C)(C)CC2)cc(-c2ccc(Cl)cc2)n1-c1ccccc1,MIC,[1],0.1 µM
Cc1c(CN2CC[Si](C)(C)CC2)cc(-c2ccc(Cl)cc2)n1-c1ccc(Cl)cc1,"remaining at 1 h, 50 µM",[2],99.4%
same,fraction unbound at 150 µM,[3],0.0002
same,IC50 at 24 h,[4],> 20 µM
same,solubility at 5000 µM,[5],4.73 µM
same,Activity,[6],Non-Toxic
same,solubility at 5000 µM,[7],38.8 µM
same,"remaining at 0.5 h, 50 µM",[8],56.7%
same,solubility at 5000 µM,[9],39.1 µM
same,selectivity ratio,[10],> 250
same,selectivity ratio,[11],> 250
same,"remaining at 0.5 h, 50 µM",[12],86.3%
same,solubility at 5000 µM,[13],36.7 µM
same,MIC,[1],0.1 µM
COc1ccc(-c2cc(CN3CC[Si](C)(C)CC3)c(C)n2-c2ccc(F)cc2)cc1,MIC,[1],1.5 µM
NNC(=O)c1ccncc1 [ISONIAZID],MIC,[1],2.2 µM
Cc1c(CN2CCN(C)CC2)cc(-c2ccc(Cl)cc2)n1-c1ccc(Cl)cc1,solubility at 5000 µM,[5],26.7 µM
same,solubility at 5000 µM,[7],45.2 µM
same,"remaining at 0.5 h, 50 µM",[8],79.8%
same,solubility at 5000 µM,[9],42.2 µM
same,"remaining at 0.5 h, 50 µM",[12],62.4%
same,solubility at 5000 µM,[13],36.7 µM
same,solubility at 5000 µM,[14],5.38 µM
same,MIC,[1],1.7 µM
C[Si]1(C)CCN(Cc2cc(-c3ccc(Cl)cc3)n(-c3ccc(Cl)cc3)n2)CC1,MIC,[15],0.07 µM
CSc1ccc(-c2cc(CN3CC[Si](C)(C)CC3)c(C)n2-c2ccc(F)cc2)cc1,MIC,[1],0.2 µM
Cc1ccc(-c2cc(CN3CC[Si](C)(C)CC3)c(C)n2-c2ccc(F)cc2)cc1,"remaining at 1 h, 50 µM",[2],96.9%
same,fraction unbound at 150 µM,[3],0.0009
same,IC50 at 24 h,[4],> 20 µM
same,solubility at 5000 µM,[5],26.8 µM
same,Activity,[6],Non-Toxic
same,solubility at 5000 µM,[7],43.7 µM
same,"remaining at 0.5 h, 50 µM",[8],36.4%
same,solubility at 5000 µM,[9],42.1 µM
same,selectivity ratio,[10],> 250
same,selectivity ratio,[11],> 250
same,"remaining at 0.5 h, 50 µM",[12],45.1%
same,solubility at 5000 µM,[13],42.6 µM
same,solubility at 5000 µM,[14],3.13 µM
same,MIC,[1],0.1 µM
Cc1c(C(=O)NN2CCCCC2)nn(-c2ccc(Cl)cc2Cl)c1-c1ccc(Cl)cc1 [RIMONABANT],MIC,[15],54 µM
CCc1ccc(-c2cc(CN3CC[Si](C)(C)CC3)c(C)n2-c2ccc(OC)cc2)cc1,MIC,[1],0.2 µM
CCc1ccc(-n2c(-c3ccc(Cl)cc3)cc(CN3CC[Si](C)(C)CC3)c2C)cc1,"remaining at 1 h, 50 µM",[2],95.7%
same,fraction unbound at 150 µM,[3],0.0002
same,IC50 at 24 h,[4],> 20 µM
same,solubility at 5000 µM,[5],1.19 µM
same,Activity,[6],Non-Toxic
same,solubility at 5000 µM,[7],9.86 µM
same,"remaining at 0.5 h, 50 µM",[8],60.8%
same,solubility at 5000 µM,[9],37.2 µM
same,selectivity ratio,[10],> 250
same,selectivity ratio,[11],> 250
same,"remaining at 0.5 h, 50 µM",[12],75.5%
same,solubility at 5000 µM,[13],32.6 µM
same,solubility at 5000 µM,[14],12.9 µM
same,MIC,[1],0.1 µM
COc1ccc(-c2c(CN3CC[Si](C)(C)CC3)cc(C)n2-c2ccc(F)cc2)cc1,MIC,[1],7.4 µM
CCc1ccc(-n2c(C)cc(CN3CC[Si](C)(C)CC3)c2-c2ccc(OC)cc2)cc1,MIC,[1],23.1 µM
CSc1ccc(-c2c(CN3CC[Si](C)(C)CC3)cc(C)n2-c2ccc(F)cc2)cc1,MIC,[1],3.6 µM
CCc1ccc(-n2c(-c3ccc(OC)cc3)cc(CN3CC[Si](C)(C)CC3)c2C)cc1,MIC,[1],1.5 µM

# Reference: ChEMBL document CHEMBL5634080, “Synthesis, biological evaluation and docking studies of silicon incorporated diarylpyrroles as MmpL3 inhibitors: An effective strategy towards development of potent anti-tubercular agents” (Eur J Med Chem, 2023)
